Measured values from BigSolDB 2.1.

Clc1ccccc1C(c1ccccc1)(c1ccccc1)n1ccnc1
solubility (mole fraction)
Conditions | 293.2 K | 298.2 K | 303.2 K | 308.2 K | 313.2 K
in ethanol | 0.0154 | 0.0167 | 0.0216 | 0.025 | 0.0312
in water | 2.42e-08 | 2.92e-08 | 3.38e-08 | 3.77e-08 | 4.15e-08
